Test results: PMC12598616, “Design and optimization of caspase-1-responsive fluorescent probes for pyroptosis imaging and anti-pyroptosis drug screening” (Chemical Science, 2025)

Tested on: Cas-1 in primary NP cells
Experiment: Intracellular imaging in nucleus pulposus cells
Assay type: cell-based, rat
Details: H2O2 2 mM 30, 60, 90 min; FPy1 5 μM 1 h
Text: With advancing age, the prevalence of degenerative bone and joint disorders (DBJDs), such as intervertebral disc degeneration (IVDD) and osteoarthritis (OA), increases markedly among middle-aged and elderly individuals.[30] Chronic inflammation has been identified as the underlying cause of DBJDs. In particular, inflammasome-mediated pyroptosis has been recognized as a primary contributor to sustained inflammatory responses.[31] Consequently, pyroptosis-associated biomarkers represent promising indicators for the diagnosis and monitoring of DBJDs. IVDD, a chronic degenerative condition closely related to natural aging, has become one of the leading causes of disability worldwide.[32] […] The imaging results indicated a positive correlation between fluorescence intensity and H2O2-stimulation time (Fig. 4b). […] Encouraged by the promising imaging results of FPy1 in NP cells and cell spheroids, we further assessed its capability for imaging pytoptosis in vivo. […] Following intradiscal injection of FPy1, the fluorescence images of the tail modeling site were obtained from the dorsal aspect. […] Histological scoring result corroborated these findings, reflecting the same trends as with fluorescence imaging observed using FPy1 (Fig. S13b). […]
The cytotoxicity of FPy1 and YPy1 to THP-1 was evaluated by cell counting kit-8 (CCK-8). […]

–FLTDG– [FPy1, RhoB donor, hNR quencher]
intracellular fluorescence intensity in NP cells: increased with the duration of H2O2 stimulation
